Consider nine compounds from patent US20100015147A1 (priority 2001, published 2010).

Entries after “also recorded” stand apart in the source; their conditions may differ. Like-named read-outs stand apart in the source and are kept apart here.

In one test the test system is mammalian neuraminidase. The note with it: cultures of human macrophagic cells; cited from earlier work.
Test [1] has as its system Swiss-Webster (SW) mice. It counts as in vivo.
The subject of test [2] is Swiss-Webster (SW) mice. Description: Hot-water-immersion tail-flick antinociception assays with neuraminidase inhibitors (temperature not given). It counts as in vivo.
Test [3] relates to Swiss-Webster (SW) mice. It counts as in vivo. The conditions noted are these: for effect on low-dose κ-opioid-induced hyperalgesia, compared with CTX-B cotreatment: 10 ng/kg U-50,488H plus ultralow (pg/kg) dose of antagonist.
Test [4] relates to Swiss-Webster (SW) mice. The class given is in vivo. The source holds these as a separate data set.
Test [5] deals with male dental-pain patients. The conditions noted are these: cited from earlier work.
Test [6] has as its system Swiss-Webster (SW) mice. The conditions noted are these: low doses in naïve mice; cited from earlier work.
For another test, the system named is mice. The note with it: cited from earlier work.

`O=S(=O)([O-])[O-].[Mg+2]` [MgSO4]: in the test on mammalian neuraminidase, the “effect on mammalian neuraminidase activity” value is “potent inhibitory effects on mammalian neuraminidase activity”.
With `O=S(=O)([O-])[O-].[Na+].[Na+]` [Na2SO4], the “effect on mammalian neuraminidase activity” value in the test with mammalian neuraminidase is “potent inhibitory effects on mammalian neuraminidase activity”. Moreover, the NLX-precipitated withdrawal hyperalgesia entry with Swiss-Webster (SW) mice [1] (mouse, in vivo) is reported as “prevented NLX-precipitated withdrawal hyperalgesia”. The “results of antinociception assays compared with oseltamivir” value with Swiss-Webster (SW) mice [2] (3 μg/kg morphine plus 10 mg/kg Na2SO4) was “surprisingly similar”. Moreover, in the test on Swiss-Webster (SW) mice [2] (10 mg/kg Na2SO4 plus 3 mg/kg morphine, daily injections for 5 days), the development of tolerance entry is on record as “prevented development of tolerance during daily injections for 5 days”. Also, in the test on Swiss-Webster (SW) mice [2] (chronic 10 mg/kg Na2SO4 plus 3 mg/kg morphine), the “effect on morphine analgesia” value was “enhanced analgesia”.
Regarding `CN1CC[C@]23c4c5ccc(O)c4O[C@H]2[C@@H](O)C=C[C@H]3[C@H]1C5` [morphine], in the test on Swiss-Webster (SW) mice [3] (0.1 μg/kg morphine s.c. alone, control groups), the “effect on tail-flick latency, opioid alone” value is given as “marked hyperalgesia; also recorded: characteristic hyperalgesia”. Moreover, in the test with Swiss-Webster (SW) mice [3] (1 μg/kg morphine s.c. alone, 52° C., male mice), the “duration of decreases in tail-flick latencies (hyperalgesia) after drug injection” value lay within 4 to 5 h. Further, the “time after opioid injection to hyperalgesia” value with Swiss-Webster (SW) mice [3] (1 mg/kg morphine s.c. alone, control group of female mice) is ≤ 2 h. For the same compound, the “decreases in tail-flick latencies” value with Swiss-Webster (SW) mice [3] (ca. 1 μg/kg morphine s.c. alone, 52° C.) lay in the range of 1 to 2 s. Moreover, the “time course of antinociceptive effect, morphine alone” value with Swiss-Webster (SW) mice [4] (3 mg/kg morphine alone, 55° C.) is on record as “sharply decreased after the first-hour peak”. In addition, the “analgesic effects after chronic morphine alone (tolerance)” value with Swiss-Webster (SW) mice [4] (daily 3 mg/kg morphine alone, 5 days) is “sharply decreased by 5 days”. For the same compound, in the test on Swiss-Webster (SW) mice [2] (morphine-only group, 5 days (FIG. 9)), the “response after chronic morphine only” value was “marked hyperalgesia”.
`Oc1ccc2c3c1O[C@H]1[C@@H](O)CC[C@@]4(O)[C@@H](C2)N(CC2CCC2)CC[C@]314` [nalbuphine]: in test [5] (nalbuphine 5 mg i.v.), the “effect on pain within 1 h after injection” value is on record as “hyperalgesia”.
Consider `C=CCN1CC[C@]23c4c5ccc(O)c4O[C@H]2C(=O)CC[C@@]3(O)[C@H]1C5` [naloxone], for which the “duration of NLX-evoked hyperalgesic response” value in the test on Swiss-Webster (SW) mice [1] (chronic morphine (e.g., 10 mg/kg for 5-6 days), withdrawal, 10 μg/kg NLX) is listed as “more than 5 h”. In addition, in test [5] (cotreatment with 0.5 mg naloxone), the “effect on nalbuphine-induced hyperalgesia” value was “blocked”. In addition, the “effect on baseline tail-flick latency” value with Swiss-Webster (SW) mice [6] is recorded as “did not alter the baseline tail-flick latency”.
Turning to `O=C1CC[C@@]2(O)[C@H]3Cc4ccc(O)c5c4[C@@]2(CCN3CC2CC2)[C@H]1O5` [naltrexone], the results for the “effect on low-dose κ-opioid-induced hyperalgesia, compared with CTX-B cotreatment” value in the test with Swiss-Webster (SW) mice [3] and with Swiss-Webster (SW) mice [3] (listed as NTX) were “similar” and “comparable; also recorded: selectively blocked”, respectively. The “block of low-dose morphine hyperalgesia and unmasking of analgesia, compared with CTXB cotreatment” value in the test on Swiss-Webster (SW) mice [3] (1 μg/kg morphine plus 1 pg/kg (ultralow-dose) naltrexone) was “similar”. In addition, in the test with Swiss-Webster (SW) mice [6], the “effect on baseline tail-flick latency” value is “did not alter the baseline tail-flick latency”.
For the compound `Oc1ccc2c3c1O[C@H]1c4[nH]c5c(c4C[C@@]4(O)[C@@H](C2)N(CC2CC2)CC[C@]314)C[C@@]1(O)[C@H]2Cc3ccc(O)c4c3[C@@]1(CCN2CC1CC1)[C@H]5O4` [nor-binaltorphimine], the “effect on low-dose κ-opioid-induced hyperalgesia, compared with CTX-B cotreatment” value in the test on Swiss-Webster (SW) mice [3] is recorded as “comparable; also recorded: selectively blocked; also recorded: similar”.
As for `CCOC(=O)C1=C[C@@H](OC(CC)CC)[C@H](NC(C)=O)[C@@H](N)C1` [oseltamivir], the NLX-precipitated withdrawal hyperalgesia entry in the test on Swiss-Webster (SW) mice [1] (chronic cotreatment with morphine plus oseltamivir) is given as “prevented development of NLX-precipitated withdrawal hyperalgesia”. In the test with Swiss-Webster (SW) mice [2] (FIG. 10), the “time to development of morphine tolerance after withdrawal of oseltamivir” value was ≤ 1 days. For the same compound, the “development of opioid tolerance” value was “attenuates development of opioid tolerance” in the test with Swiss-Webster (SW) mice [2] (chronic cotreatment with morphine plus oseltamivir (FIGS. 8 and 9)); “prevents development of opioid tolerance” in the test on Swiss-Webster (SW) mice [2] (chronic oseltamivir plus morphine for 3 days (FIG. 8)). The “effect on analgesic potency of higher doses of morphine” value with Swiss-Webster (SW) mice [2] (cotreatment with oseltamivir, male mice (FIG. 7)) is listed as “markedly enhances the analgesic potency”. The “effect on low-dose morphine-induced hyperalgesia” value in the test on Swiss-Webster (SW) mice [2] (morphine plus oseltamivir s.c., male mice (FIG. 6)) is “selectively blocks; also recorded: blocks low-dose, morphine-induced hyperalgesia”. Also, the “effect of adding oseltamivir to chronic morphine-tolerant mice” value in the test with Swiss-Webster (SW) mice [2] (oseltamivir added for 1 day (FIG. 10)) is given as “restores prominent analgesia”. In addition, in the test on Swiss-Webster (SW) mice [2] (oseltamivir plus morphine, 5 days (FIG. 9)), the “morphine analgesia after chronic cotreatment” value is “still show prominent morphine (Mor) analgesia”.
In the case of dynorphin, the “effect on tail-flick latency” value in the test with mice (dynorphin 0.5 μg/kg s.c., tested at 90 min post-injection) is reported as “thermal hyperalgesia”; in the test with mice (dynorphin 50 μg/kg), “analgesia”.
